# Experimental data: PMC3703888, “Integration of Different “-omics” Technologies Identifies Inhibition of the IGF1R-Akt-mTOR Signaling Cascade Involved in the Cytotoxic Effect of Shikonin against Leukemia Cells” (Evidence-based Complementary and Alternative Medicine : eCAM, 2013)
# What was measured:
# U937 cells [1] = experiment: Stable-isotope dimethyl labeling quantitative proteomics; format: cell-based; conditions: 0.3 μM shikonin (IC50), 24 h vs DMSO
# Procedure: To examine quantitative changes in the proteome of U937 leukemia cells after shikonin treatment, the dimethyl labeling proteomics analysis was performed. Briefly, 5 × 10^6 U937 cells were seeded in 10 mL RPMI 1640 medium in a 25 cm^2 culture flask. Subsequently, cells were treated with 0.3 μM shikonin (IC50) or DMSO as solvent control for 24 h. After incubation cells were washed with PBS and protein extraction was performed using the M-PER Mammalian Protein Extraction Reagent (Thermo Scientific, Germany) containing a protease inhibitor cocktail (Roche, Germany), cells were incubated with the extraction reagent for 40 min at 4°C. After incubation, cellular debris was removed by centrifugation at 14000 ×g for 15 min. Supernatants were transferred into new tubes and an acetone precipitation of the proteins was performed. After precipitation, the acetone was removed and the protein pellet in each of the tube was further diluted to 1 μg/μL with 50 mM TEABC and reduced with 5 mM TCEP for 1 h at 37°C, followed by alkylation using 2 mM MMTS for 45 min at room temperature. For the proteolytic digestion, the modified tube-gel digestion protocol was applied and the detergent residue was checked using the method described previously. Two 200 μg proteolytic protein mixtures from DMSO and shikonin treated cells were first dissolved in 200 μL of 100 mM TEABC (pH 8.5) and, respectively, mixed with 20 μL of formaldehyde and formaldehyde-13C, d2 (4%, diluted with H2O). After vortexing (5 min) and centrifugation, each of the sample solutions was mixed with 20 μL of 600 mM sodium cyanoborohydride solution. The sample solutions were vortexed (10 min) and centrifuged again and then allowed to react for 30 min at 25°C. To quench the reaction, ammonium hydroxide (7% in water, 10 μL) was added to each sample solution. Finally, 16 μL of formic acid was added to acidify each of the sample solutions and two samples were further combined for strong cation exchange (SCX) fractionation.
# For SCX fractionation, the buffer SCX-A (5 mM KH2PO4 in 25% ACN at pH 3) and SCX-B (5 mM KH2PO4 and 350 mM KCl in 25% ACN at pH 3) were used as the mobile phase. The peptide mixtures were reconstituted in buffer SCX-A and then loaded into a PolySULFOETHYL A column (200 × 2.1 mm, 5 μm, 300Å, PolyLC, Columbia, MD) for 10 min at the flow rate of 0.2 mL/min. Peptides were fractionated using a 75 min gradient from 0 to 100% of buffer SCX-B. Fractions were collected every three minutes from the retention time of 10 to 55 min using a fraction collector (BioFrac Fraction Collector, BioRad Laboratories, Hercules, CA). The peptide mixtures in each of the fraction were further analyzed by the LC-MS/MS.
# LC-MS/MS analysis was performed with a nanoUHPLC system (nanoACQUITY UPLC, Waters, Millford, MA) coupled online to the nanoelectrospray source of a hybrid quadrupole time-of-flight mass spectrometer (Q-TOF-MS) (SYNAPT HDMS G2, Waters, Manchester, UK). For LC-MS/MS analysis, water with 0.1% FA and ACN with 0.1% FA were used as the mobile phase. The sample was injected into a trap column (Symmetry C18, 5 μm, 180 μm × 20 mm, Waters, Milford, MA) and separated online with a reverse phase column (BEH C18, 1.7 μm, 75 μm × 250 mm, Waters, Milford, MA) at the flow rate of 300 nL/min using either a 95 min gradient with 5–90% ACN/water ratio. The mass spectrometry instruments were all operated in the positive ion mode, and data-dependent acquisition methods were applied for all experiments. The acquisition settings were set to one full MS scan (350–1600 m/z) with a scan time of 1 second and switched to six product ion scans (50–1900 m/z) with 0.4 second scan time when a precursor ion charge was 2+, 3+, or 4+, and the intensity was higher than 200 counts. The data files generated from LC-MS/MS were processed by UniQua and further analyzed by the MASCOT and Trans Proteomics Pipeline (TPP) 1 version 4.4 rev. 1, and the details and criteria of data processing were described previously.
# U937 cells [2] = experiment: miRNA microarray; format: cell-based, human; conditions: shikonin at IC50 concentration, 24 h
# Procedure: miRNA from U937 cells after 24 h of treatment with shikonin at IC50 concentration was isolated using miRNeasy Kit from Qiagen (Hilden, Germany) according to the manufacture's instruction. The quality of miRNA was checked by gel analysis using the Small RNA Nano chip assay on an Agilent 2100 Bioanalyzer (Agilent Technologies GmbH, Germany). The miRNA microarray was performed at the Institute for Molecular Biology (IMB). Microarray experiments were performed in duplicates for treated and untreated samples. Human miRNA microarray chips (8 × 60 K, Agilent Technologies) were used. Probe labeling and hybridization were carried out following the miRNA microarray system with miRNA complete labeling and hyb kit protocol (Agilent Technologies). Briefly, extracted RNA was treated with phosphatase. Dephosphorylated RNA was fluorescently labeled by ligation of Cyanine 3-pCp molecules to the 3′ end of RNA molecules using Agilent's miRNA Complete Labeling and Hyb Kit. The labeled RNA was desalted and hybridized for 20 hours at 55°C and 20 rpm. Microarray slides were washed and scanned with Agilent Microarray Scanning system. Images were analyzed and data were extracted, background subtracted, and normalized using the standard procedures of Agilent Feature Extraction Software. The expression data obtained was filtered with Chipster data analysis platform. These steps include filtering of miRNAs by two times standard deviation of deregulated genes and a subsequent assessment of significance using empirical Bayes t-test (P < 0.05).
structure (smiles),measurement,setting,value
CC(C)=CC[C@@H](O)C1=CC(=O)c2c(O)ccc(O)c2C1=O [shikonin],FC protein 5′-Nucleotidase domain-containing protein 2,U937 cells [1],−5.4
same,FC protein 60S ribosomal protein L24,U937 cells [1],−7.5
same,FC protein ATP-dependent RNA helicase DDX3Y,U937 cells [1],−4.3
same,FC protein Cell differentiation protein RCD1 homolog,U937 cells [1],+10.0
same,FC protein Golgi phosphoprotein 3,U937 cells [1],−3.5
same,FC protein Heme oxygenase 1,U937 cells [1],+14.3
same,FC protein Heterogeneous nuclear ribonucleoprotein H2,U937 cells [1],−4.5
same,FC protein Hexokinase-1,U937 cells [1],−20.5
same,FC protein Histone H2B type 2-E,U937 cells [1],+7.1
same,FC protein Histone H4,U937 cells [1],+11.1
same,FC protein LIM domain and actin-binding protein 1,U937 cells [1],+6.7
same,FC protein Leucine-rich repeat-containing protein 58,U937 cells [1],−3.5
same,FC protein Mannose-6-phosphate isomerase,U937 cells [1],+7.7
same,FC protein Methylosome protein 50,U937 cells [1],−4.0
same,FC protein Neuronal-specific septin-3,U937 cells [1],+6.7
same,FC protein Rho GTPase-activating protein 4,U937 cells [1],−3.1
same,FC protein Schlafen family member 11,U937 cells [1],+6.7
same,FC protein Sorting nexin-17,U937 cells [1],+9.1
same,FC protein Vacuolar protein sorting-associated protein 11 homolog,U937 cells [1],−20.0
same,FC protein WD repeat-containing protein 3,U937 cells [1],+12.1
same,FC miRNA miR-19b-2-5p,U937 cells [2],+5.2
same,FC miRNA miR-20b-3p,U937 cells [2],+3.7
same,FC miRNA miR-30a-3p,U937 cells [2],+2.9
same,FC miRNA miR-33b-5p,U937 cells [2],+3.1
same,FC miRNA miR-92a-3p,U937 cells [2],+2.7
same,FC miRNA miR-155-3p,U937 cells [2],+3.4
same,FC miRNA miR-181a-2-3p,U937 cells [2],+3.2
same,FC miRNA miR-193b-3p,U937 cells [2],+2.7
same,FC miRNA miR-223-5p,U937 cells [2],+2.7
same,FC miRNA miR-513a-5p,U937 cells [2],−4.7
same,FC miRNA miR-630,U937 cells [2],−5.1
same,FC miRNA miR-638,U937 cells [2],−6.1
same,FC miRNA miR-1185-5p,U937 cells [2],−5.2
same,FC miRNA miR-1207-5p,U937 cells [2],−6.3
same,FC miRNA miR-1246,U937 cells [2],−6.0
same,FC miRNA miR-1290,U937 cells [2],−6.2
same,FC miRNA miR-1915-3p,U937 cells [2],−13.8
same,FC miRNA miR-2861,U937 cells [2],−9.8
same,FC miRNA miR-3907,U937 cells [2],+2.8
same,FC miRNA miR-4299,U937 cells [2],−30.6
